Test results as given in US20260284050A1, “ACTIVATORS OF THE COLD STRESS RESPONSE AND USES THEREOF” (priority 2023, published 2026).
Where two headings read alike, the source gives them in different places. Where a SMILES comes first, the peptide text is derived from it. The star is where a group is joined. Cbz = O=C(OCc1ccccc1)*

Columns and labels:
SP1+MCRE-MHI = assay: cells; conditions: HEK293FT; for fold induction at 20 µM: Homo sapiens
Procedure: Briefly, Lipofectamine 3000 (Thermofisher Scientific, L3000015) was used to transfect the SP1+MCRE indicator into the HEK293FT cell line. 24 h after transfection, 30000 cells were plated into each well of a 96 well black well plate. 48 h after transfection the cells were exposed to FDA Approved Drug Screening Library (L1300-Z298012) via the High Throughput Screening Services (ChemCore) at Johns Hopkins University. Each drug was exposed in 20 μM concentration. Total well GFP was read with the ClarioStarPlus Plate Reader (settings: gain 1500, 470-15 excitation and emission 515-20 at focal height 2.6) 16, 28, and 40 h after exposure of the library. Increase in fluorescence was calculated with dividing GFP reads from positive control at each time point with GFP reads of each well exposed to drug at the same timepoint for wells in the same lane. Compounds were validated in same concentration (20 μM). For validation cells were exposed to the drug for 24 hours, and evaluated by FACS as described in the section Transfection of indicators into cell lines.
To explore this in an unbiased manner, a systematic library drug screen (1953 FDA-approved inhibitors) was performed using HEK293FT cells transfected with the SP1+MCRE-MHI. […] Cells transfected with said MHI were exposed to the drug library (20 μM concentration) and fluorescence was measured after 16-, 28- and 40-hours of drug exposure. Drugs that could increase the indicator's fluorescence at least >3.75 times at one of the time points were further investigated.

SP1-MHI = assay: FACS validation in HEK293 cells with Cas9 and SP1-MHI; type: cell-based, human; conditions: 20 μM
Procedure: HEK293 cell lines were transfected when 70-90% confluency was reached. Either Lipofectamine™ 2000 or 3000 (Thermofisher Scientific, #11668027, #L3000015) was used according to the manufacture's protocol. The fluorescence of the indicators was measured via FACS up to 48 hours after transfection. FACS data were analysed with the FlowJo Software, where gates were created on living cells, single cells, GFP positive cells and the fluorescence for that population was measured.
Each drug was exposed in 20 μM concentration. […] Compounds were validated in same concentration (20 μM).
HEK293 cells with Cas9 and SP1-MHI were individually exposed to each compound (20 μM) for 16 hours at either 32° C. or 37° C. followed by FACS. […] (Entacapone, Poziotinib), indicating activation of response with drug without hypothermic stimulus.

SP1, RBM3 and CIRBP = assay: Western blot of SP1, RBM3 and CIRBP after compound exposure; type: cell-based, human; conditions: 24 h exposure at either 32° C. or 37° C.
Procedure: (§1) Cells were washed with PBS and then lysed for 30 min on ice in RIPA buffer (50 mM Tris HCl ph8, 150 mM NaCl, 1% NP-40, 1% Sodium deoxycholate, 0.1% SDS, 2 mM EDTA, phosphatase inhibitor (Cell signaling, Cat. #5870S), and Halt™ Protease Inhibitor Cocktail (Thermo Fisher, Cat. #78437). The lysates were centrifuged at 16,000×g for 20 minutes at 4° C. and the supernatants were collected. The supernatants were diluted with 4× loading buffer (Li-cor) and heated at 95° C. for 5 mins. The protein concentration was measured using Pierce™ BCA Assay Kit (Thermo Fisher). 20-30 μg protein samples were loaded into gels and separated by SDS-PAGE. They were transferred to polyvinylidene fluoride (PVDF) membranes and blocked in 5% bovine serum albumin in Tris-buffered saline with Tween 20 for 1 hour. Primary antibodies (rabbit anti-CIRBP, 1:2000, Cat. #10209-2-AP, Proteintech; rabbit anti-RBM3, 1:1000, CAT. #14363-1-AP, Proteintech; rabbit anti-SP1 1:1000, CAT. #21962-1-AP, Proteintech; mouse anti-Lamin 1, 1:5000, CAT. #66095-1-Ig, Proteintech; rabbit anti-SMYD5, 1:1000, in-house; rabbit anti-Phospho-SP1, 1:1000, CAT. #PA5-104771, Proteintech) were applied to respective membranes after washing, and incubated at 4° C. overnight. […] After washing, the protein bands were visualized on the Odyssey® CLx Infrared Imaging System and quantified by Image J software.

HEK293 cells = assay: Cell cycle phase evaluation of HEK293 cells; type: cell-based, human; conditions: for cell cycle arrest: HEK293 cells exposed to compound
Procedure: To exclude the possibility of cell cycle arrest or increased apoptosis, cell cycle phase of HEK293 cells exposed to Pozitinib and Entacapone was evaluated. […] Similarly, there were no signs of activation of the MHIs after exposure to an apoptotic agent.

SMYD5 = SMYD5 levels at 32° C. with proteasome inhibition; type: cell-based, human; conditions: 6 hour exposure
Procedure: as §1, with “software. […]” for “software.”

CIRBP = assay: RT-qPCR of endogenous CIRBP relative to GAPDH; type: cell-based, human; conditions: 16 h exposure at 37° C.
Procedure: (§2) Total RNA from cells incubated at 32° C. or 37° C. was isolated, using Direct-zol™ RNA Microprep (Zymo Research, R2062), according to the manufacturer's instructions. The concentration of RNA was measured by NanoDrop™ One Microvolume UV-Vis Spectrophotometer (Thermo Scientificv™) followed by cDNA synthesis with High-Capacity cDNA Reverse Transcription Kit (Applied Biosystems™, 4368814) on MiniAmp™ Thermal Cycler (Applied Biosystems™). qPCR was performed using Luna® Universal qPCR Master Mix on CFX384™ Real-Time PCR Detection System (Bio-Rad). Each biological replicate of the RT-qPCR assay in this study was carried out in technical triplicates. Any technical replicate that deviated from other replicates by 0.4 cycle threshold (Ct) was removed from calculations of average Ct values. The primers used in this study are as follows: […]
(§3) To evaluate effects on the endogenous loci (CIRBP, RBM3 and SP1) real time quantitative polymerase chain reaction (RT-qPCR) was carried out after 16 h of either 32° C. or 37° C.—with or without the exposure to the compound during that time.

RBM3 = assay: RT-qPCR of endogenous RBM3 relative to GAPDH; type: cell-based, human; conditions: 16 h exposure at 37° C.
Procedure: as §2, §3

SP1 = assay: RT-qPCR of endogenous SP1 relative to GAPDH; type: cell-based, human; conditions: 16 h exposure at 37° C.
Procedure: as §2, §3

[1] = 40 h, read-out: increase in fluorescence of the SP1+MCRE-MHI

CN(C)C/C=C/C(=O)Nc1cc2c(Nc3ccc(F)c(Cl)c3)ncnc2cc1O[C@H]1CCOC1 [Afatinib]
fold induction at 20 µM (SP1+MCRE-MHI; [1]): > 3.75

C[C@@H](NCCCc1cccc(C(F)(F)F)c1)c1cccc2ccccc12 [Cincalcet]
increase in fluorescence of the SP1+MCRE-MHI (SP1+MCRE-MHI; 20 μM, at one of the time points (16, 28, 40 h of drug exposure)): > 3.75 times

Cc1nc(Nc2ncc(C(=O)Nc3c(C)cccc3Cl)s2)cc(N2CCN(CCO)CC2)n1 [Dasatinib]
fold induction at 20 µM (SP1+MCRE-MHI; [1]): > 3.75

CCN(CC)C(=O)/C(C#N)=C/c1cc(O)c(O)c([N+](=O)[O-])c1 [Entacapone]
fold induction at 20 µM (SP1+MCRE-MHI; [1]): > 3.75 | mean fluorescence of SP1-MHI by FACS (SP1-MHI; 16 hours at 32° C.): significantly (P<0.01) potentiate fluorescence levels | mean fluorescence of SP1-MHI by FACS (SP1-MHI; 16 hours at 37° C.): significantly (P<0.001, P<0.0001) increased fluorescence | Western blot of SP1, RBM3 and CIRBP with versus without compound (SP1, RBM3 and CIRBP): significant difference (P<0.05 | percentage of total cells in the S phase of cell cycle (HEK293 cells; 16 hours exposure at both 32° C. and 37° C.): slight increase | cell cycle arrest (HEK293 cells): Any signs of cell cycle arrest

CC[C@H]1OC(=O)[C@H](C)[C@@H](O[C@H]2C[C@@](C)(OC)[C@@H](O)[C@H](C)O2)[C@H](C)[C@@H](O[C@@H]2O[C@H](C)C[C@H](N(C)C)[C@H]2O)[C@](C)(O)C[C@@H](C)C(=O)[C@H](C)[C@@H](O)[C@]1(C)O [Erythromycin]
fold induction at 20 µM (SP1+MCRE-MHI; [1]): > 3.75

CS(=O)(=O)CCNCc1ccc(-c2ccc3ncnc(Nc4ccc(OCc5cccc(F)c5)c(Cl)c4)c3c2)o1 [Lapatinib]
fold induction at 20 µM (SP1+MCRE-MHI; [1]): > 3.75

CC(C)C[C@@H](C=O)NC(=O)[C@H](CC(C)C)NC(=O)[C@H](CC(C)C)NC(=O)OCc1ccccc1 [MG132] (Cbz-Leu-Leu-Leu-aldehyde)
SMYD5 levels (SMYD5): increases levels of SMYD5 at 32 °C to levels seen at 37 °C

C=CCN1CC[C@]23c4c5ccc(O)c4O[C@H]2C(=O)CC[C@@]3(O)[C@H]1C5 [Naloxone]
fold induction at 20 µM (SP1+MCRE-MHI; [1]): > 3.75

Cc1[nH]c(/C=C2\C(=O)Nc3ccccc32)c(C)c1CCC(=O)O [Orantinib]
fold induction at 20 µM (SP1+MCRE-MHI; [1]): > 3.75

C=CC(=O)N1CCC(Oc2cc3c(Nc4ccc(Cl)c(Cl)c4F)ncnc3cc2OC)CC1 [Poziotinib]
fold induction at 20 µM (SP1+MCRE-MHI; [1]): > 3.75 | CIRBP mRNA expression (CIRBP): trend towards increase | mean fluorescence of SP1-MHI by FACS (SP1-MHI; 16 hours at 37° C.): significantly (P<0.001, P<0.0001) increased fluorescence | RBM3 mRNA expression (RBM3): significantly (P<0.05) increased | cell cycle arrest (HEK293 cells): Any signs of cell cycle arrest | SP1 mRNA expression (SP1): trend towards increase

C=CC(=O)Nc1cccc(Nc2nc(Nc3ccc(N4CCN(C(C)=O)CC4)cc3OC)ncc2C(F)(F)F)c1 [Rociletinib]
fold induction at 20 µM (SP1+MCRE-MHI; [1]): > 3.75

CC/C(=C(\c1ccccc1)c1ccc(OCCN(C)C)cc1)c1ccccc1 [Tamoxifen]
fold induction at 20 µM (SP1+MCRE-MHI; [1]): > 3.75

Cc1ccc(C(=O)c2cc(O)c(O)c([N+](=O)[O-])c2)cc1 [Tolcapone]
fold induction at 20 µM (SP1+MCRE-MHI; 16 h, read-out: relative increase of fluorescence of the SP1+MCRE-MHI compared to control): 1.8 | fold induction at 20 µM (SP1+MCRE-MHI; 28 h, read-out: relative increase of fluorescence of the SP1+MCRE-MHI compared to control): 1.7 | fold induction at 20 µM (SP1+MCRE-MHI; 40 h, read-out: relative increase of fluorescence of the SP1+MCRE-MHI compared to control): 1.9
